The values below are quoted from earlier work in patent publication US20080234197A1, “Method(s) of stabilizing and potentiating the actions and administration of brain-derived neurotrophic factor (BDNF)” (priority 2007, published 2008).

Data set [1] relates to spinal cord neurons.
The test system of data set [2] is syntaxin 3. The note with it: upon addition of fatty acid.
Data set [3] deals with glioma cells.
Data set [4] relates to ARH explants. The note with it: 100 ng/ml for 72 hours, explants from neonatal mice, vs control.
Data set [5] deals with NPY and POMC neurons in the hypothalamus. The note with it: ob/ob mice, after administration.
The test system of data set [6] is db/db mice. Conditions: once or twice per week (70 mg/kg/wk) for 3 weeks, vs control.

Read-outs that look alike come from different tables or passages of the source.

Regarding `CN1CCCC1c1cccnc1` (centres unmarked) [nicotine], the “protection against arachidonic acid-induced apoptosis of spinal cord neurons” value in data set [1] is “fully protected”. Besides, the “prevention of arachidonic acid-induced decrease of BDNF expression” value in data set [1] (pretreatment with 10-microM) is on record as “fully prevented”.
Regarding `CC/C=C\C/C=C\C/C=C\CCCCCCCC(=O)O` [ALA, alpha-linolenic acid], the “intrinsic tyrosine fluorescence of syntaxin 3” value (“intrinsic tyrosine fluorescence” below) in data set [2] was “marked changes”.
In the case of `CCCCC/C=C\C/C=C\C/C=C\C/C=C\CCCC(=O)O` [AA, arachidonic acid], the dopamine uptake result in data set [3] (20-160 microM, pre-incubated 15-30 min) is recorded as “stimulated”; in data set [3] (160 microM, longer pre-exposures 45-60 min) it was “inhibited”. For the same molecule, the “intrinsic tyrosine fluorescence” value in data set [2] is “marked changes”. Besides, in data set [1] (2-hour exposure, spinal cord neurons), the “expression of BDNF” value was “markedly diminished”.
With “leptin: adiposity hormone produced by the white adipose tissue”, in data set [4], the “induction of neurites from ARH explants” value is reported as “significant induction of neurites”. Further, the “time to normalization of synaptic density” value in data set [5] was at most 6 h.
On to `CCCCC/C=C\C/C=C\CCCCCCCC(=O)O` [LA, cis-linoleic acid], for which, in data set [2], the “intrinsic tyrosine fluorescence” value is “marked changes”.
As for `CCCCCCCC/C=C\CCCCCCCC(=O)O` [oleic acid], in data set [2], the “intrinsic tyrosine fluorescence” value is on record as “ineffective”.

B1: BDNF: brain-derived neurotrophic factor, a neurotrophin protein (protein, UniProt P23560 19-247, looked up)
Neurotrophic factor BDNF …: APMKEANIRGQGGLAYPGVRTHGTLESVNGPKAGSRGLTSLADTFEHVIEELLDEDQKVRPNEENNKDADLYTSRVMLSSQVPLEPPLLFLLEEYKNYLDAANMSMRVRRHSDPARRGELSVCDSISEWVTAADKKTAVDMSGGTVTVLEKVPVSKGQLKQYFYETKCNPMGYTKEGCRGIDKRHWNSQCRTTQSYVRALTMDSKKRIGWRFIRIDTSCVCTLTIKRGR
For the molecule B1, in data set [1], the “protection against arachidonic acid-induced apoptosis of spinal cord neurons” value is “fully protected”. In data set [6], the blood glucose concentrations entry is listed as “significantly reduced” and the “hemoglobin A1c (HbA1c)” value is on record as “significantly reduced”.
